± gives the expanded uncertainty stated by the source.
What was measured:
[1] = refractive index (Na D-line) (dimensionless); xn = mol fraction of the nth substance listed; settings: 101 kPa, Liquid
[2] = xn = mol fraction of the nth substance listed; settings: 101 kPa, Liquid

C1COCCO1 [1,4-dioxane] + CCOC(C)=O
Settings | mass density, 298.15 K [kg/m3] | mass density, 303.15 K [kg/m3] | mass density, 308.15 K [kg/m3] | refractive index, 298.15 K | refractive index, 303.15 K | refractive index, 308.15 K | speed of sound, 298.15 K [m/s] | viscosity, 298.15 K [mPa·s] | viscosity, 303.15 K [mPa·s] | viscosity, 308.15 K [mPa·s]
[1], x1 = 0.1004 | – | – | – | 1.3753 ± 0.0024 | 1.3716 ± 0.0024 | 1.368 ± 0.0024 | – | – | – | –
[1], x1 = 0.2001 | – | – | – | 1.3798 ± 0.0024 | 1.3764 ± 0.0024 | 1.373 ± 0.0024 | – | – | – | –
[1], x1 = 0.3021 | – | – | – | 1.3843 ± 0.0024 | 1.3813 ± 0.0024 | 1.3782 ± 0.0024 | – | – | – | –
[1], x1 = 0.4002 | – | – | – | 1.389 ± 0.0024 | 1.3862 ± 0.0024 | 1.3834 ± 0.0024 | – | – | – | –
[1], x1 = 0.5071 | – | – | – | 1.3942 ± 0.0024 | 1.3915 ± 0.0024 | 1.3889 ± 0.0024 | – | – | – | –
[1], x1 = 0.6001 | – | – | – | 1.3991 ± 0.0024 | 1.3964 ± 0.0024 | 1.3938 ± 0.0024 | – | – | – | –
[1], x1 = 0.6972 | – | – | – | 1.4041 ± 0.0024 | 1.4015 ± 0.0024 | 1.3989 ± 0.0024 | – | – | – | –
[1], x1 = 0.799 | – | – | – | 1.4094 ± 0.0024 | 1.4069 ± 0.0024 | 1.4044 ± 0.0024 | – | – | – | –
[1], x1 = 0.8991 | – | – | – | 1.4148 ± 0.0024 | 1.4122 ± 0.0024 | 1.4097 ± 0.0024 | – | – | – | –
[1], x1 = 1 | – | – | – | 1.4203 ± 0.0024 | 1.4164 ± 0.0024 | 1.4145 ± 0.0024 | – | – | – | –
[2], x1 = 0.1004 | 906.2 ± 1.2 | 900 ± 1.2 | 893.9 ± 1.3 | – | – | – | 1174 ± 7 | 0.467 ± 0.017 | 0.442 ± 0.017 | 0.417 ± 0.016
[2], x1 = 0.2001 | 918.8 ± 1.2 | 912.7 ± 1.3 | 906.6 ± 1.3 | – | – | – | 1193 ± 7 | 0.505 ± 0.018 | 0.478 ± 0.018 | 0.45 ± 0.017
[2], x1 = 0.3021 | 931.9 ± 1.2 | 925.8 ± 1.3 | 919.8 ± 1.3 | – | – | – | 1212 ± 7 | 0.543 ± 0.019 | 0.513 ± 0.019 | 0.482 ± 0.018
[2], x1 = 0.4002 | 944.7 ± 1.3 | 938.7 ± 1.3 | 932.7 ± 1.4 | – | – | – | 1231 ± 7 | 0.595 ± 0.021 | 0.56 ± 0.02 | 0.525 ± 0.019
[2], x1 = 0.5071 | 958.7 ± 1.3 | 952.8 ± 1.3 | 946.9 ± 1.4 | – | – | – | 1250 ± 7 | 0.646 ± 0.022 | 0.607 ± 0.021 | 0.568 ± 0.02
[2], x1 = 0.6001 | 971.1 ± 1.3 | 965.2 ± 1.4 | 959.5 ± 1.4 | – | – | – | 1269 ± 7 | 0.707 ± 0.024 | 0.671 ± 0.023 | 0.616 ± 0.021
[2], x1 = 0.6972 | 984.4 ± 1.3 | 978.6 ± 1.4 | 972.8 ± 1.4 | – | – | – | 1288 ± 7 | 0.791 ± 0.026 | 0.735 ± 0.025 | 0.684 ± 0.023
[2], x1 = 0.799 | 998.7 ± 1.4 | 993 ± 1.4 | 987.2 ± 1.5 | – | – | – | 1307 ± 7 | 0.908 ± 0.03 | 0.843 ± 0.028 | 0.778 ± 0.026
[2], x1 = 0.8991 | 1013.3 ± 1.4 | 1007.7 ± 1.4 | 1001.9 ± 1.5 | – | – | – | 1327 ± 7 | 1.029 ± 0.033 | 0.951 ± 0.031 | 0.873 ± 0.029
[2], x1 = 1 | 1028.6 ± 1.4 | 1022.9 ± 1.5 | 1017.2 ± 1.5 | – | – | – | 1345 ± 7 | 1.195 ± 0.038 | 1.095 ± 0.035 | 1.008 ± 0.032

C1COCCO1 [1,4-dioxane] + ClC=C(Cl)Cl
x1 = 1
Settings | mass density, 298.15 K [kg/m3] | mass density, 303.15 K [kg/m3] | mass density, 308.15 K [kg/m3] | refractive index, 298.15 K | refractive index, 303.15 K | refractive index, 308.15 K | speed of sound, 298.15 K [m/s] | viscosity, 298.15 K [mPa·s] | viscosity, 303.15 K [mPa·s] | viscosity, 308.15 K [mPa·s]
[1] | – | – | – | 1.4203 ± 0.0024 | 1.4164 ± 0.0024 | 1.4145 ± 0.0024 | – | – | – | –
[2] | 1028.6 ± 1.4 | 1022.9 ± 1.5 | 1017.2 ± 1.5 | – | – | – | 1345 ± 7 | 1.196 ± 0.038 | 1.102 ± 0.035 | 1.008 ± 0.032

C1COCCO1 [1,4-dioxane] + Clc1ccccc1Cl
x1 = 1
Settings | mass density, 298.15 K [kg/m3] | mass density, 303.15 K [kg/m3] | mass density, 308.15 K [kg/m3] | refractive index, 298.15 K | refractive index, 303.15 K | refractive index, 308.15 K | speed of sound, 298.15 K [m/s] | viscosity, 298.15 K [mPa·s] | viscosity, 303.15 K [mPa·s] | viscosity, 308.15 K [mPa·s]
[1] | – | – | – | 1.4203 ± 0.0024 | 1.4164 ± 0.0024 | 1.4145 ± 0.0024 | – | – | – | –
[2] | 1028.6 ± 1.4 | 1022.9 ± 1.5 | 1017.2 ± 1.5 | – | – | – | 1345 ± 7 | 1.196 ± 0.038 | 1.102 ± 0.035 | 1.008 ± 0.032

C1COCCO1 [1,4-dioxane] + OCCCl
x1 = 1
Settings | mass density, 298.15 K [kg/m3] | mass density, 303.15 K [kg/m3] | mass density, 308.15 K [kg/m3] | refractive index, 298.15 K | refractive index, 303.15 K | refractive index, 308.15 K | speed of sound, 298.15 K [m/s] | viscosity, 298.15 K [mPa·s] | viscosity, 303.15 K [mPa·s] | viscosity, 308.15 K [mPa·s]
[1] | – | – | – | 1.4203 ± 0.0024 | 1.4164 ± 0.0024 | 1.4145 ± 0.0024 | – | – | – | –
[2] | 1028.6 ± 1.4 | 1022.9 ± 1.5 | 1017.2 ± 1.5 | – | – | – | 1345 ± 7 | 1.196 ± 0.038 | 1.095 ± 0.035 | 1.008 ± 0.032

OCCCl [1-chloro-2-hydroxyethane] + C1COCCO1
Settings | mass density, 298.15 K [kg/m3] | mass density, 303.15 K [kg/m3] | mass density, 308.15 K [kg/m3] | refractive index, 298.15 K | refractive index, 303.15 K | refractive index, 308.15 K | speed of sound, 298.15 K [m/s] | viscosity, 298.15 K [mPa·s] | viscosity, 303.15 K [mPa·s] | viscosity, 308.15 K [mPa·s]
[1], x2 = 0 | – | – | – | 1.4411 ± 0.0024 | 1.438 ± 0.0024 | 1.4326 ± 0.0024 | – | – | – | –
[1], x2 = 0.1024 | – | – | – | 1.4389 ± 0.0024 | 1.4356 ± 0.0024 | 1.4324 ± 0.0024 | – | – | – | –
[1], x2 = 0.2001 | – | – | – | 1.4363 ± 0.0024 | 1.4337 ± 0.0024 | 1.431 ± 0.0024 | – | – | – | –
[1], x2 = 0.3035 | – | – | – | 1.4337 ± 0.0024 | 1.4314 ± 0.0024 | 1.4292 ± 0.0024 | – | – | – | –
[1], x2 = 0.4041 | – | – | – | 1.4314 ± 0.0024 | 1.4291 ± 0.0024 | 1.4268 ± 0.0024 | – | – | – | –
[1], x2 = 0.5047 | – | – | – | 1.429 ± 0.0024 | 1.4269 ± 0.0024 | 1.4247 ± 0.0024 | – | – | – | –
[1], x2 = 0.6031 | – | – | – | 1.4273 ± 0.0024 | 1.4249 ± 0.0024 | 1.4225 ± 0.0024 | – | – | – | –
[1], x2 = 0.7015 | – | – | – | 1.4256 ± 0.0024 | 1.4231 ± 0.0024 | 1.4205 ± 0.0024 | – | – | – | –
[1], x2 = 0.8009 | – | – | – | 1.4235 ± 0.0024 | 1.4211 ± 0.0024 | 1.4187 ± 0.0024 | – | – | – | –
[1], x2 = 0.9003 | – | – | – | 1.4214 ± 0.0024 | 1.4191 ± 0.0024 | 1.4168 ± 0.0024 | – | – | – | –
[2], x2 = 0 | 1200.9 ± 1.7 | 1192.5 ± 1.7 | 1187.1 ± 1.8 | – | – | – | 1358 ± 8 | 3.104 ± 0.091 | 2.669 ± 0.079 | 2.347 ± 0.07
[2], x2 = 0.1024 | 1177.7 ± 1.7 | 1171.1 ± 1.7 | 1165.1 ± 1.7 | – | – | – | 1357 ± 8 | 2.755 ± 0.081 | 2.457 ± 0.073 | 2.16 ± 0.065
[2], x2 = 0.2001 | 1157 ± 1.6 | 1151.1 ± 1.7 | 1145.2 ± 1.7 | – | – | – | 1356 ± 8 | 2.431 ± 0.072 | 2.17 ± 0.065 | 1.909 ± 0.058
[2], x2 = 0.3035 | 1136.7 ± 1.6 | 1131.1 ± 1.6 | 1125.5 ± 1.7 | – | – | – | 1354 ± 8 | 2.088 ± 0.063 | 1.877 ± 0.057 | 1.666 ± 0.051
[2], x2 = 0.4041 | 1118.2 ± 1.6 | 1112.7 ± 1.6 | 1107.2 ± 1.7 | – | – | – | 1353 ± 8 | 1.858 ± 0.056 | 1.682 ± 0.051 | 1.505 ± 0.046
[2], x2 = 0.5047 | 1100.8 ± 1.5 | 1095.4 ± 1.6 | 1090 ± 1.6 | – | – | – | 1352 ± 7 | 1.649 ± 0.05 | 1.496 ± 0.046 | 1.344 ± 0.042
[2], x2 = 0.6031 | 1084.8 ± 1.5 | 1079.4 ± 1.5 | 1073.9 ± 1.6 | – | – | – | 1350 ± 7 | 1.505 ± 0.046 | 1.376 ± 0.043 | 1.248 ± 0.039
[2], x2 = 0.7015 | 1069.5 ± 1.5 | 1064.1 ± 1.5 | 1058.7 ± 1.6 | – | – | – | 1349 ± 7 | 1.377 ± 0.043 | 1.265 ± 0.04 | 1.152 ± 0.037
[2], x2 = 0.8009 | 1054.9 ± 1.5 | 1049.5 ± 1.5 | 1044.1 ± 1.5 | – | – | – | 1347 ± 7 | 1.304 ± 0.041 | 1.199 ± 0.038 | 1.095 ± 0.035
[2], x2 = 0.9003 | 1041.6 ± 1.4 | 1030.9 ± 7 | 1030.2 ± 1.5 | – | – | – | 1346 ± 7 | 1.233 ± 0.039 | 1.136 ± 0.036 | 1.038 ± 0.033

From the NIST ThermoML archive (doi:10.1021/je049609w)
